Read-outs that look alike come from different tables or passages of the source. Marks after values point to notes of the source that are not given here.
Legend:
[1] = tested on: HHV-1, 29R strain; format: cell-based, human Alpha herpesvirus type 1
[2] = tested on: Vero-E6 cells; test: Cytotoxicity CC100 in Vero-E6 cells (72 h); settings: for CC100 (100% cytotoxic concentration): Vero-E6 cells, 72h; for Cytostatic compounds (asterisk at the label): Table 1 footnote mark
[3] = tested on: BHK-21 cells; test: Cytotoxicity CC100 in BHK-21 cells (6 days)
[4] = tested on: ZIKV (Zika virus); test: Plaque reduction assay (PFU), ZIKV in Vero E6; format: cell-based; settings: ZIKV, Vero E6, PFU/well 150 ± 25
[5] = tested on: CHIKV (Chikungunya virus); test: End-point titration technique (EPTT), viral titer reduction factor, CHIKV in Vero E6; format: cell-based; settings: for Rf (reduction factor of the viral titer): Vero E6, 10TCID50, EPTT
[6] = tested on: DENV-2 (Dengue virus type 2); test: Plaque reduction assay (PFU), DENV-2 in BHK21; format: cell-based; settings: for % inhibition (PFU): DENV-2, BHK21, PFU/well 150 ± 25
[7] = tested on: ZIKV (Zika virus); test: End-point titration technique (EPTT), cytopathic effect inhibition, ZIKV in Vero E6; format: cell-based; settings: Vero E6, 10TCID50, EPTT
[8] = tested on: DENV-2 (Dengue virus type 2); test: End-point titration technique (EPTT), cytopathic effect inhibition, DENV-2 in Vero E6; format: cell-based; settings: DENV-2, Vero E6, 10TCID50, EPTT

Row | Compound | Rf (reduction factor of the viral titer) ([1]; Vero E6, 10TCID50, EPTT) | CC100 (100% cytotoxic concentration) [2] [µg/mL] | CC100 (100% cytotoxic concentration) [3] [µg/mL] | % inhibition (PFU) [4] [%] | further results
1 | CC(C)c1cc2c(cc1O)[C@@]1(C)CCC[C@](C)(C(=O)O)[C@@H]1CC2=O [Compound 23b] | not active | 25 | 12.5 | – | –
2 | COC(=O)[C@]1(C)CCC[C@]2(C)c3ccc(C(C)C)c(O)c3CC[C@@H]12 [Compound 24, methyl 14-hydroxy-dehydroabietate] | – | >25 | >25 | 51 ± 15 | Rf (reduction factor of the viral titer) [5]: 10^2; % inhibition (PFU) [6]: 48 ± 9%; Most active concentration, in μM ([6]; DENV-2 PFU assay, conversion of 3.1 μg/mL): ca. 9.3 μM
3 | CC(C)c1ccc2c(c1)CC[C@H]1C(C)(CO)CCC[C@]21C (some centres unmarked) [Compound 14] | not active | >50 | >50 | 37 ± 15 | Rf (reduction factor of the viral titer) [5]: 10^2; % inhibition (PFU) [6]: 30 ± 10%
4 | COC(=O)[C@]1(C)CCC[C@]2(C)c3cc(OC(C)=O)c(C(C)C)cc3CC[C@@H]12 [Compound 16a] | – | 50 | 50 | 22 ± 13 | inhibition ECytop (inhibitory cytopathic effect compared to the infection control) [7]: +; Rf (reduction factor of the viral titer) [5]: 10^2
5 | CC(C)c1cc2c(cc1O)[C@@]1(C)CCC[C@](C)(CO)[C@@H]1CC2=O [Compound 21b] | – | >25 | 25 | – | –
6 | COC(=O)[C@]1(C)CCC[C@]2(C)c3cc(C(C)=O)c(C(C)C)cc3CC[C@@H]12 [Compound 15a] | – | >50 | 25 | – | –
7 | dextran sulfate [DS, reference compound] | – | >50 | – | – | Nontoxic concentration that showed higher viral reduction factor ([1]; Vero E6, 10TCID50, EPTT): 5 µg/mL
8 | COC(=O)[C@]1(C)CCC[C@]2(C)c3ccc(C(C)C)cc3CC[C@@H]12 [Compound 12, methyl dehydroabietate] | – | >50 | 50 | 25 ± 10 | inhibition ECytop (inhibitory cytopathic effect compared to the infection control) [7]: +
9 | CC(C)c1cc2c(cc1O)[C@@]1(C)CCC[C@@](C)(C(=O)O)[C@@H]1CC2=O [Compound 23a, liquiditerpenoic acid A] | – | >50 | 50 | – | –
10 | CC(C)c1cc2c(cc1O)[C@@]1(C)CCCC(C)(C)[C@@H]1CC2 [Compound 5, (+)-ferruginol] | not active | >50 | >50 | 38 ± 15 | Rf (reduction factor of the viral titer) [5]: 10^2; % inhibition (PFU) [6]: 28 ± 10%
11 | heparin [reference compound] | – | – | – | – | Nontoxic concentration that showed higher viral reduction factor ([1]; Vero E6, EPTT, heparin): 10 U.I.; Nontoxic concentration that showed higher viral reduction factor ([5]; Vero E6, EPTT, heparin): 10 U.I.; CC100 (100% cytotoxic concentration) ([2]; heparin): >100 U.I
12 | COC(=O)[C@]1(C)CCC[C@]2(C)c3cc(OC(C)=O)c(C(C)C)cc3C(=O)C[C@@H]12 [Compound 17a] | – | 25 | 25 | – | –
13 | CC(C)c1cc2c(cc1O)[C@@]1(C)CCC[C@@](C)(CO)[C@@H]1CC2 [Compound 20a, 18-hydroxyferruginol] | – | 50 | 50 | 19 ± 11 | Rf (reduction factor of the viral titer) [5]: 10^2; % inhibition (PFU) [6]: 25 ± 10%; Cytostatic effect [2]: cytostatic; Cytostatic compounds (asterisk at the label) [2]: 20a*
14 | CC(C)c1ccc2c(c1O)CC[C@H]1[C@](C)(C(=O)O)CCC[C@]21C [Compound 25] | not active | >25 | >25 | 20 ± 09 | –
15 | COC(=O)[C@@]1(C)CCC[C@]2(C)c3cc(O)c(C(C)C)cc3CC[C@@H]12 [Compound 18b] | not active | >50 | 50 | 48 ± 12 | Rf (reduction factor of the viral titer) [5]: 10^2; % inhibition (PFU) [6]: 51 ± 8%
16 | COC(=O)[C@]1(C)CCC[C@]2(C)c3cc(O)c(C(C)C)cc3CC[C@@H]12 [Compound 18a] | – | 50 | 25 | – | –
17 | CC(C)c1cc2c(cc1O)[C@@]1(C)CCC[C@@](C)(CO)[C@@H]1CC2=O [Compound 21a] | – | 25 | 12.5 | 27 ± 12 | inhibition ECytop (inhibitory cytopathic effect compared to the infection control) [8]: +; Rf (reduction factor of the viral titer) [5]: 10^2
18 | COC(=O)[C@@]1(C)CCC[C@]2(C)c3cc(C(C)=O)c(C(C)C)cc3CC[C@@H]12 [Compound 15b] | – | >50 | 50 | 29 ± 14 | % inhibition (PFU) [6]: 68 ± 20%
19 | COC(=O)[C@@]1(C)CCC[C@]2(C)c3cc(OC(C)=O)c(C(C)C)cc3CC[C@@H]12 [Compound 16b] | not active | 25 | 25 | 29 ± 9 | inhibition ECytop (inhibitory cytopathic effect compared to the infection control) [7]: +; inhibition ECytop (inhibitory cytopathic effect compared to the infection control) [8]: +
20 | COC(=O)[C@@]1(C)CCC[C@]2(C)c3cc(OC(C)=O)c(C(C)C)cc3C(=O)C[C@@H]12 [Compound 17b] | not active | 50 | 25 | – | inhibition ECytop (inhibitory cytopathic effect compared to the infection control) [7]: +
21 | CC(C)c1ccc2c(c1O)CC[C@H]1[C@](C)(CO)CCC[C@]21C [Compound 26] | not active | >25 | >25 | – | inhibition ECytop (inhibitory cytopathic effect compared to the infection control) [7]: +
22 | CC(C)c1cc2c(cc1O)[C@@]1(C)CCC[C@@](C)(C(=O)O)[C@@H]1CC2 [Compound 19a, 12-hydroxydehydroabietic acid] | – | 25 | 12.5 | – | –
23 | CC(C)c1cc2c(cc1O)[C@@]1(C)CCC[C@](C)(C(=O)O)[C@@H]1CC2 [Compound 19b, lambertic acid] | – | >50 | >50 | 27 ± 17 | inhibition ECytop (inhibitory cytopathic effect compared to the infection control) [7]: +; % inhibition (PFU) [6]: 35 ± 10%
24 | CC(C)c1ccc2c(c1)CC[C@H]1C(C)(C(=O)O)CCC[C@]21C (some centres unmarked) [Compound 13] | – | 50 | 50 | 19 ± 12 | inhibition ECytop (inhibitory cytopathic effect compared to the infection control) [8]: +; Cytostatic compounds (asterisk at the label) [2]: 13*
25 | CC(C)c1cc2c(cc1O)[C@@]1(C)CCC[C@](C)(CO)[C@@H]1CC2 [Compound 20b, 19-hydroxyferruginol] | – | 25 | 12.5 | – | inhibition ECytop (inhibitory cytopathic effect compared to the infection control) [7]: +; Rf (reduction factor of the viral titer) [5]: 10^2
26 | COC(=O)[C@@]1(C)CCC[C@]2(C)c3cc(O)c(C(C)C)cc3C(=O)C[C@@H]12 [Compound 22b] | not active | 25 | 12.5 | – | inhibition ECytop (inhibitory cytopathic effect compared to the infection control) [8]: +
27 | COC(=O)[C@]1(C)CCC[C@]2(C)c3cc(O)c(C(C)C)cc3C(=O)C[C@@H]12 [Compound 22a] | – | 50 | 25 | – | –

— PMC9425435, “Antiviral Profiling of C-18- or C-19-Functionalized Semisynthetic Abietane Diterpenoids” (Journal of Natural Products, 2022)
